Paper PMC7248880, “Preclinical Incorporation Dosimetry of [^18F]FACH—A Novel ^18F-Labeled MCT1/MCT4 Lactate Transporter Inhibitor for Imaging Cancer Metabolism with PET” (Molecules, 2020)

Assay: Preclinical incorporation dosimetry: whole-body PET/CT in piglets, scaled to human, OLINDA 2.1, ICRP103
Format: in vivo, juvenile pigs
Procedure: Three piglets (age: ~6 weeks, weight: ~13–15 kg) were fasted on the day of imaging and received an intranuscular. injection of 1 mL azaperone and 4 mL ketamine to introduce anesthesia. […] During narcosis, the animals maintained spontaneous respiration and no mandatory ventilation was applied. The subjects were sequentially imaged after an iv injection (contralateral ear vein) of 156 ± 54 MBq [^18F]FACH (0.63 ± 0.49 µg) in a PET/CT system (Biograph16, SIEMENS, Erlangen, Germany). The piglets were positioned prone with legs alongside the body on a custom-made plastic trough including a piglet head-holder (Figure 5). The PET acquisition was divided into a sequential (4 × 9 min, 3 × 12 min) and a static part (1 × 24 min, 1 × 30 min, 1 × 36 min), each of which was preceded by a low-dose CT to acquire structural data for attenuation correction (AC) and anatomical orientation (Figure 6). Post mortem, the urine was collected by bladder punctuation, weighted, and divided into three 1 mL samples for activity measurements in a gamma-counter (Packard Cobra II 5003 Auto Gamma Counting System, GMI, Ramsey, MN, USA).
PET data reconstruction was done using low-dose CT attenuation correction (AC) and an iterative OSEM algorithm with 4 iterations and 8 subsets. As the PET/CT system is in daily clinical use, it is periodically subjected to detector normalization and activity calibration. Furthermore, all peripheral activity-measuring devices to be used for the investigation (dose calibrator, gamma counter) are cross-calibrated in terms of timing and a radioactivity adjustment.
The image data were analyzed with ROVER (ABX, Radeberg, Germany; v. 3.0.46h). The organs were identified and manually delineated using 3D volumes of interest (VOI). The CT data were used for anatomical orientation and for image registration with the PET data. Relevant source organs like brain, gall bladder, large intestine, small intestine, stomach, heart, kidneys, liver, lungs, pancreas, red marrow (backbone, pelvis, sternum), spleen, thyroid, testes, skeleton (bone), and the urinary bladder were delineated and the time–activity data transformed into percentage of injected dose (%IDorgan) with Equation (2). (2) %IDorgant=Aorgant×cscant/A0t [%] where Aorgant is the activity in the organ at the time t; cscant is a calibration factor representing the theoretical body activity (derived from a whole body mask of a volume that equals the body dimentions of the animal) decay corrected to t and divided by the imaged body activity in each image frame at the time t, and A0t is the injected activity decay corrected to t0.
The dose calculation has been described by our group in detail before. Briefly, due to differences in weight, size, and metabolic rates between the animal species and the human volunteers, it is necessary to map the preclinical extracted biodistribution data to human circumstances. Thus, the animal biokinetic data (time scale and %ID values) were adapted to the human circumstances according to [22] to fit the human weight, size, and metabolic rates (Equations (3) and (4)). (3) thuman=tanimal[mhuman/manimal]^0.25 (4) [%ID]/organhuman=[%ID]/ganimal×mTBanimal[g]/mTBhuman[g]×morganhuman[g]
The TIACs were estimated by exponential fitting and the dosimetry estimation was performed using OLINDA/EXM software (v. 2.1). Finally, organ doses (OD) were estimated and multiplied by tissue weighting factors as published in ICRP103 [20].

[1] = mean of three piglets, ICRP103 wT
[2] = mean of three piglets, adult male model
[3] = mean ± SD, three piglets, ICRP103 wT

CCCN(CCC[18F])c1ccc(/C=C(\C#N)C(=O)O)c(OC)c1 [[^18F]FACH, (E)-2-cyano-3-{4-[(3-[^18F]fluoropropyl)(propyl)amino]-2-methoxyphenyl}acrylic acid]
Effective dose contribution HT wT, Heart Wall (FACHpig3): 8.18E-05 mSv/MBq | Effective dose contribution HT wT, Kidneys (FACHpig3): 2.59E-04 mSv/MBq | Effective dose contribution HT wT, Left colon (FACHpig3): 5.06E-04 mSv/MBq | Effective dose contribution HT wT, Liver (FACHpig3): 1.37E-03 mSv/MBq | Effective dose contribution HT wT, Lungs (FACHpig3): 9.15E-04 mSv/MBq | Effective dose contribution HT wT, Osteogenic Cells (FACHpig3): 2.03E-04 mSv/MBq | Effective dose contribution HT wT, Pancreas (FACHpig3): 7.24E-05 mSv/MBq | Effective dose contribution HT wT, Prostate (FACHpig3): 5.95E-05 mSv/MBq | Effective dose contribution HT wT, Rectum (FACHpig3): 2.92E-04 mSv/MBq | Effective dose contribution HT wT, Red Marrow (FACHpig3): 1.47E-03 mSv/MBq | Effective dose contribution HT wT, Right colon (FACHpig3): 9.75E-04 mSv/MBq | Effective dose contribution HT wT, Salivary Glands (FACHpig3): 6.33E-05 mSv/MBq | Effective dose contribution HT wT, Small Intestine (FACHpig3): 9.09E-05 mSv/MBq | Effective dose contribution HT wT, Spleen (FACHpig3): 7.43E-05 mSv/MBq | Effective dose contribution HT wT, Stomach Wall (FACHpig3): 9.98E-04 mSv/MBq | Effective dose contribution HT wT, Testes (FACHpig3): 2.90E-04 mSv/MBq | Effective dose contribution HT wT, Thymus (FACHpig3): 6.50E-05 mSv/MBq | Effective dose contribution HT wT, Thyroid (FACHpig3): 2.77E-04 mSv/MBq | Effective dose contribution HT wT, Total Body (FACHpig3): 0.00E+00 mSv/MBq | Effective dose contribution HT wT, Urinary Bladder Wall (FACHpig3): 3.52E-03 mSv/MBq | Organ equivalent dose HT, Adrenals (FACHpig3): 1.47E-02 mSv/MBq | Organ equivalent dose HT, Brain (FACHpig3): 4.10E-03 mSv/MBq | Organ equivalent dose HT, Esophagus (FACHpig3): 8.11E-03 mSv/MBq | Organ equivalent dose HT, Eyes (FACHpig3): 5.63E-03 mSv/MBq | Organ equivalent dose HT, Gallbladder Wall (FACHpig3): 8.72E-02 mSv/MBq | Organ equivalent dose HT, Heart Wall (FACHpig3): 8.86E-03 mSv/MBq | Organ equivalent dose HT, Kidneys (FACHpig3): 2.81E-02 mSv/MBq | Organ equivalent dose HT, Left colon (FACHpig3): 1.04E-02 mSv/MBq | Organ equivalent dose HT, Liver (FACHpig3): 3.42E-02 mSv/MBq | Organ equivalent dose HT, Lungs (FACHpig3): 7.62E-03 mSv/MBq | Organ equivalent dose HT, Osteogenic Cells (FACHpig3): 2.03E-02 mSv/MBq | Organ equivalent dose HT, Pancreas (FACHpig3): 7.85E-03 mSv/MBq | Organ equivalent dose HT, Prostate (FACHpig3): 1.29E-02 mSv/MBq | Organ equivalent dose HT, Rectum (FACHpig3): 1.27E-02 mSv/MBq | Organ equivalent dose HT, Red Marrow (FACHpig3): 1.22E-02 mSv/MBq | Organ equivalent dose HT, Right colon (FACHpig3): 2.01E-02 mSv/MBq | Organ equivalent dose HT, Salivary Glands (FACHpig3): 6.33E-03 mSv/MBq | Organ equivalent dose HT, Small Intestine (FACHpig3): 9.84E-03 mSv/MBq | Organ equivalent dose HT, Spleen (FACHpig3): 8.05E-03 mSv/MBq | Organ equivalent dose HT, Stomach Wall (FACHpig3): 8.32E-03 mSv/MBq | Organ equivalent dose HT, Testes (FACHpig3): 7.26E-03 mSv/MBq | Organ equivalent dose HT, Thymus (FACHpig3): 7.04E-03 mSv/MBq | Organ equivalent dose HT, Thyroid (FACHpig3): 6.93E-03 mSv/MBq | Organ equivalent dose HT, Total Body (FACHpig3): 8.63E-03 mSv/MBq | Organ equivalent dose HT, Urinary Bladder Wall (FACHpig3): 8.80E-02 mSv/MBq | ED Contr., Adrenals [1]: 1.31 × 10^−4 mSv/MBq | ED Contr., Brain [1]: 4.69 × 10^−5 mSv/MBq | ED Contr., Esophagus [1]: 3.61 × 10^−4 mSv/MBq | ED Contr., Eyes [1]: 0.00 mSv/MBq | ED Contr., Gall Bladder Wall [1]: 4.65 × 10^−4 mSv/MBq | ED Contr., Heart Wall [1]: 8.72 × 10^−5 mSv/MBq | ED Contr., Kidneys [1]: 2.42 × 10^−4 mSv/MBq | ED Contr., Left Colon [1]: 6.63 × 10^−4 mSv/MBq | ED Contr., Liver [1]: 9.34 × 10^−4 mSv/MBq | ED Contr., Lungs [1]: 9.46 × 10^−4 mSv/MBq | ED Contr., Osteogenic Cells [1]: 2.12 × 10^−4 mSv/MBq | ED Contr., Pancreas [1]: 2.81 × 10^−4 mSv/MBq | ED Contr., Prostate [1]: 6.01 × 10^−5 mSv/MBq | ED Contr., Rectum [1]: 3.18 × 10^−4 mSv/MBq | ED Contr., Red Marrow [1]: 1.67 × 10^−3 mSv/MBq | ED Contr., Right Colon [1]: 1.16 × 10^−3 mSv/MBq | ED Contr., Salivary Glands [1]: 7.90 × 10^−5 mSv/MBq | ED Contr., Small Intestine [1]: 1.71 × 10^−4 mSv/MBq | ED Contr., Spleen [1]: 8.37 × 10^−5 mSv/MBq | ED Contr., Stomach Wall [1]: 1.31 × 10^−3 mSv/MBq | ED Contr., Testes [1]: 3.38 × 10^−4 mSv/MBq | ED Contr., Thymus [1]: 7.69 × 10^−5 mSv/MBq | ED Contr., Thyroid [1]: 2.83 × 10^−4 mSv/MBq | ED Contr., Total Body [1]: 0.00 mSv/MBq | ED Contr., Urinary Bladder Wall [1]: 2.50 × 10^−3 mSv/MBq | OD, Adrenals [2]: 1.42 × 10^−2 mSv/MBq | OD, Brain [2]: 4.69 × 10^−3 mSv/MBq | OD, Esophagus [2]: 9.03 × 10^−3 mSv/MBq | OD, Eyes [2]: 6.91 × 10^−3 mSv/MBq | OD, Gall Bladder Wall [2]: 5.04 × 10^−2 mSv/MBq | OD, Heart Wall [2]: 9.46× 10^−3 mSv/MBq | OD, Kidneys [2]: 2.62 × 10^−2 mSv/MBq | OD, Left Colon [2]: 1.37 × 10^−2 mSv/MBq | OD, Liver [2]: 2.33 × 10^−2 mSv/MBq | OD, Lungs [2]: 7.88 × 10^−3 mSv/MBq | OD, Osteogenic Cells [2]: 2.12 × 10^−2 mSv/MBq | OD, Pancreas [2]: 3.05 × 10^−2 mSv/MBq | OD, Prostate [2]: 1.30 × 10^−2 mSv/MBq | OD, Rectum [2]: 1.38 × 10^−2 mSv/MBq | OD, Red Marrow [2]: 1.39 × 10^−2 mSv/MBq | OD, Right Colon [2]: 2.40 × 10^−2 mSv/MBq | OD, Salivary Glands [2]: 7.90 × 10^−3 mSv/MBq | OD, Small Intestine [2]: 1.84 × 10^−2 mSv/MBq | OD, Spleen [2]: 9.08 × 10^−3 mSv/MBq | OD, Stomach Wall [2]: 1.09 × 10^−2 mSv/MBq | OD, Testes [2]: 8.45 × 10^−3 mSv/MBq | OD, Thymus [2]: 8.33 × 10^−3 mSv/MBq | OD, Thyroid [2]: 7.08 × 10^−3 mSv/MBq | OD, Total Body [2]: 9.76 × 10^−3 mSv/MBq | OD, Urinary Bladder Wall [2]: 6.26 × 10^−2 mSv/MBq | organ dose, gall bladder (mean ± SD, three piglets): 50.4 ± 37.5 µSv/MBq | organ dose, kidneys (mean ± SD, three piglets): 26.2 ± 2.2 µSv/MBq | organ dose, liver (mean ± SD, three piglets): 23.3 ± 13.6 µSv/MBq | organ dose, pancreas (mean ± SD, three piglets): 30.5 ± 27.3 µSv/MBq | organ dose, right colon (mean ± SD, three piglets): 24.0 ± 7.4 µSv/MBq | organ dose, urinary bladder (mean ± SD, three piglets): 62.6 ± 28.9 µSv/MBq | contribution to the ED, lungs [3]: 0.9 ± 0.05 µSv/MBq | contribution to the ED, red marrow [3]: 1.7 ± 0.3 µSv/MBq | contribution to the ED, right colon [3]: 1.2 ± 0.4 µSv/MBq | contribution to the ED, stomach [3]: 1.3 ± 0.4 µSv/MBq | contribution to the ED, urinary bladder [3]: 2.5 ± 1.1 µSv/MBq | ED to humans, preclinical (piglet biokinetic data, ICRP103 wT): 12.4 µSv/MBq | ED to humans, corrected (~300 MBq iv, corrected for up to 40% underestimation): about 6.2 mSv
